Activity calls are given as the source filed them.
Assays:
[1] = tested on: H4; experiment: Luminescence Cell-Based Dose Response HTS to Identify Activators of 5'UTR Stem-Loop Driven Prion Protein mRNA Translation in H4 Neuroglioblastoma Cells. [Related pubchem assays: 1829 (Project Summary), 1814 (Primary HTS)]; format: functional; conditions: Homo sapiens
[2] = inhibitors of PGC1a acetylation in cells, dose response, cell-based, cherry-picked samples (AID 720514); format: functional;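 further: potency may reflect raised or lowered acetylation signal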
[3] = biological target: Bifunctional protein GlmU (Mycobacterium tuberculosis, UniProt P9WMN3); experiment: Inhibitors of Mycobacterial Glucosamine-1-phosphate acetyl transferase (GlmU). Secondary screen.; parameters: species or system Mycobacterium tuberculosis H37Rv
[4] = tested on: Streptococcus sp. 'group A'; experiment: growth inhibition of control SK(-) GAS strain, dose response, counter-screen for streptokinase expression inhibitor project, luminescence, kanamycin, BacTiterGlo, confirmation (AID 1900); format: functional, organism-based
[5] = THP-1 cell cytotoxicity, dose response, cytotoxicity control for non-replicating M. tuberculosis project (AID 489025); format: functional
[6] = biological target: Large T antigen (Simian virus 40, UniProt P03070); format: functional, Betapolyomavirus macacae;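 further: Confirmatory-stage PubChem screen for compounds that inhibit SV40 T antigen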
[7] = Vero E6 cell cytotoxicity, dose response, cytotoxicity control for non-replicating M. tuberculosis project, secondary assay (AID 492998); format: functional, VeroE6; conditions: Vero C1008
[8] = biological target: Heat shock protein HSP 90-alpha (Homo sapiens, UniProt P07900); format: functional, organism-based
[9] = biological target: T1, Sentrin-specific protease 8 (Homo sapiens, UniProt Q96LD8); format: functional;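 further: luminescence read-out of SENP8 inhibition, dose-response confirmation following an ultra-high-throughput screen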
T1 sequence (Q96LD8 whole entry): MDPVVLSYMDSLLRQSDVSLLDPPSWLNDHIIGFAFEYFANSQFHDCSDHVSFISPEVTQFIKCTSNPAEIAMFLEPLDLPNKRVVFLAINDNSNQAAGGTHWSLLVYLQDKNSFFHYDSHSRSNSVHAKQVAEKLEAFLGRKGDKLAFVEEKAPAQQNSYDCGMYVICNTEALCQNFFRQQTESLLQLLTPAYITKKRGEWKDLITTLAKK

[10] = biological target: T2, Histone-lysine N-methyltransferase NSD2 (Homo sapiens, UniProt O96028); format: biochemical
T2 sequence (O96028 whole entry): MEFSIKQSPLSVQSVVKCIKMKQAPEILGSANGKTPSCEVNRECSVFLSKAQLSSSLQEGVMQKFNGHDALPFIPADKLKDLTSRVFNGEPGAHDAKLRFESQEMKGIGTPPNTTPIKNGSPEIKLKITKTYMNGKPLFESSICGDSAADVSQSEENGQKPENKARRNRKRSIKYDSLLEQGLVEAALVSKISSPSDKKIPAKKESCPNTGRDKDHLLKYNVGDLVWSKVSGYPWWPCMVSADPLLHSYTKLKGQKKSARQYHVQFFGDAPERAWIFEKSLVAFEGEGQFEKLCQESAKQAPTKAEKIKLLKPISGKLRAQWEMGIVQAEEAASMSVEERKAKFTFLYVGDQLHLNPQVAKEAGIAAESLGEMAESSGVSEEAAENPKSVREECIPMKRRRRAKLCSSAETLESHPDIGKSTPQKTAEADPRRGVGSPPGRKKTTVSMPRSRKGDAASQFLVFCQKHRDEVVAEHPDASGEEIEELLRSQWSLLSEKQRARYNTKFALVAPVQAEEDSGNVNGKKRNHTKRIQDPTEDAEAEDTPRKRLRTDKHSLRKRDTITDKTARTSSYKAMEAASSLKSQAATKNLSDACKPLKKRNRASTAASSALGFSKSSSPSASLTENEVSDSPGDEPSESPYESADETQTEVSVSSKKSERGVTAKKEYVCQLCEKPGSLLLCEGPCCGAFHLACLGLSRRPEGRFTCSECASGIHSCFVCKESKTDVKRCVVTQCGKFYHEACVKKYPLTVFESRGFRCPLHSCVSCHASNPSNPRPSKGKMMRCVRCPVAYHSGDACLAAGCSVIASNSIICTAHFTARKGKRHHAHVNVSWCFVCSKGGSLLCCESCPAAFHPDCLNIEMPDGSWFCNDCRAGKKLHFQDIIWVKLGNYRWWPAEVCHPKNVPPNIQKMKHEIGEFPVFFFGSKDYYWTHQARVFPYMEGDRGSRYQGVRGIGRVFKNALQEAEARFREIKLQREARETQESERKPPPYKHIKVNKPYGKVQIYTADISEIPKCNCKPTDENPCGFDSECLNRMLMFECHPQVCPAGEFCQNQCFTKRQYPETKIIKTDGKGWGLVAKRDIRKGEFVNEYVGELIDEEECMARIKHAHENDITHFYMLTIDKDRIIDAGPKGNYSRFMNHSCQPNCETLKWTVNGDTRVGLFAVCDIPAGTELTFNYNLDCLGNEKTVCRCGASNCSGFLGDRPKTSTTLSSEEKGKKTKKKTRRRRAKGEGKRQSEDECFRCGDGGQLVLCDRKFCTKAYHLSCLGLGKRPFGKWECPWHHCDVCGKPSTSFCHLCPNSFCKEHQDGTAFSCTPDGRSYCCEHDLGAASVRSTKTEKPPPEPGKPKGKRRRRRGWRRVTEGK

[11] = biological target: T3, Heat shock factor protein 1 (Mus musculus, UniProt P38532); experiment: inhibition of MG132-induced HSE-luciferase signal, confirmation, cell-based, NIH3T3, luminescence, dose retest (AID 2382); format: functional;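 further: NIH3T3 fibroblasts with HSF1-driven luciferase reporter stressed by proteasome inhibitor MG132; luminescence from HSF1-driven luciferase expression after 8 hours of MG132 stress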
T3 sequence (P38532 whole entry): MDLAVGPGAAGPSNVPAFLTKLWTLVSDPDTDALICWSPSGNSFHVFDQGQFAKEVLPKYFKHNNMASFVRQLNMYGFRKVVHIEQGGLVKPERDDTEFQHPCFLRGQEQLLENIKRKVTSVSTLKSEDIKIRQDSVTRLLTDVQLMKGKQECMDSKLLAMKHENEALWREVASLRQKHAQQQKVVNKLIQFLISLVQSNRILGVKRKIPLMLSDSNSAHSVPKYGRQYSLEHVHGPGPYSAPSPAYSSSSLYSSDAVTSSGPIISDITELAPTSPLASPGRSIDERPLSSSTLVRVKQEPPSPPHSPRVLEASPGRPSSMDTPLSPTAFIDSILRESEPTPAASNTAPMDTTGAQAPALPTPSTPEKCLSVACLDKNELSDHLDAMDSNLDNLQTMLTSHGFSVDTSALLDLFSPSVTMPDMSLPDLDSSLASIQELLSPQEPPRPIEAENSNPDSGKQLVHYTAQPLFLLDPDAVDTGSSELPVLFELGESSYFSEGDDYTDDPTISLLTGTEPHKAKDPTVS

Sequence of Bifunctional protein GlmU (P9WMN3 whole entry): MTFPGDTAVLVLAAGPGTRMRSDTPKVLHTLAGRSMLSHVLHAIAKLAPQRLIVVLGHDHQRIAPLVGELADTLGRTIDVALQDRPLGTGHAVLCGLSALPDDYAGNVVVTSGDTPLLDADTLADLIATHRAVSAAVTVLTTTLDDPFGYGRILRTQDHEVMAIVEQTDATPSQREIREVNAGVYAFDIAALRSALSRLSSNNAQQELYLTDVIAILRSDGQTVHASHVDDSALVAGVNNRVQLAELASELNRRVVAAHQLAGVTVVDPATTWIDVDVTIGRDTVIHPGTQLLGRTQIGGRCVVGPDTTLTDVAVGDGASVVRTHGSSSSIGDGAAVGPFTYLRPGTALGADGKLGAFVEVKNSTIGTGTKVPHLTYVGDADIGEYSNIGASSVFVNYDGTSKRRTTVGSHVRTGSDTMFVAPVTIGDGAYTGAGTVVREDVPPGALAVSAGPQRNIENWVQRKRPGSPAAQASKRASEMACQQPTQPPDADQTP
Sequence of Large T antigen (P03070 whole entry): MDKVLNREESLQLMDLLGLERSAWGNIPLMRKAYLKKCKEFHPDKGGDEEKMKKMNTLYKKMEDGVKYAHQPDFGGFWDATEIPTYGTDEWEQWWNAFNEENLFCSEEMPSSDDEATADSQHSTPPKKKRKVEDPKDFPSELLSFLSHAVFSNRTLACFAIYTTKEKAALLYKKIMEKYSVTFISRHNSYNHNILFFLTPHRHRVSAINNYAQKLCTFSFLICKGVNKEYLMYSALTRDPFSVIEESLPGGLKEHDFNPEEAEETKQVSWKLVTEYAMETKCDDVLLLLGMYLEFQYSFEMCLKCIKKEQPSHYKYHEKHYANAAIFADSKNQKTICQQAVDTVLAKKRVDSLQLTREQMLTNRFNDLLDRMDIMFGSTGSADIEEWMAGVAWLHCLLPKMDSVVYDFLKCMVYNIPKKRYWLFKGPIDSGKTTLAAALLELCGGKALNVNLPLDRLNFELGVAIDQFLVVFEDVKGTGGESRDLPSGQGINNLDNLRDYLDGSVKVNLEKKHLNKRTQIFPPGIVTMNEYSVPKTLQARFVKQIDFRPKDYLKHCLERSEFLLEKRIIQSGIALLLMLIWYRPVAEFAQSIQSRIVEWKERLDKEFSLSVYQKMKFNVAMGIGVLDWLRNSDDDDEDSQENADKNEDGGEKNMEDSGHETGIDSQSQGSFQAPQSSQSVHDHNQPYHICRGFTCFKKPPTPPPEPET

Row | Compound | EC50 [1] | AC50 [2] | IC50 [3] | EC50 [4] | CC50 [5] | IC50 [6] | CC50 [7] | AC50 [8] | IC50 [9] | AC50 [10] | EC50 [11]
1 | O=C(Nc1ccccc1)c1nnsc1[S+]([O-])c1ccc(Cl)cc1 (stereo not drawn) | 24 µM (active) | 10.3 µM (active) | 197 µM (active) | 2.11 µM (active) | 23.4 µM (active) | 25 µM (active) | 13.1 µM (active) | < 0.195 µM (active) | – | – | –
2 | O=C1C=C(Nc2ccccc2)c2ccccc2C1=O | – | – | – | 1.77 µM (active) | – | – | – | – | 9.45 µM (active) | – | –
3 | CC1OC(Nc2cccc3ccccc23)C(O)C(O)C1O (stereo not drawn) | – | – | – | – | – | – | – | – | 6.06 µM (active) | 9.24 µM (active) | > 195 µM (not active)
